Target: T1, ITK (Mus musculus, UniProt Q03526)
T1 construct: mice were sacrificed and splenocytes were isolated and used to prepare protein lysates; from tissue; host or cells: mouse splenocytes (spleen) after oral dosing
T1 sequence (Q03526 1-625): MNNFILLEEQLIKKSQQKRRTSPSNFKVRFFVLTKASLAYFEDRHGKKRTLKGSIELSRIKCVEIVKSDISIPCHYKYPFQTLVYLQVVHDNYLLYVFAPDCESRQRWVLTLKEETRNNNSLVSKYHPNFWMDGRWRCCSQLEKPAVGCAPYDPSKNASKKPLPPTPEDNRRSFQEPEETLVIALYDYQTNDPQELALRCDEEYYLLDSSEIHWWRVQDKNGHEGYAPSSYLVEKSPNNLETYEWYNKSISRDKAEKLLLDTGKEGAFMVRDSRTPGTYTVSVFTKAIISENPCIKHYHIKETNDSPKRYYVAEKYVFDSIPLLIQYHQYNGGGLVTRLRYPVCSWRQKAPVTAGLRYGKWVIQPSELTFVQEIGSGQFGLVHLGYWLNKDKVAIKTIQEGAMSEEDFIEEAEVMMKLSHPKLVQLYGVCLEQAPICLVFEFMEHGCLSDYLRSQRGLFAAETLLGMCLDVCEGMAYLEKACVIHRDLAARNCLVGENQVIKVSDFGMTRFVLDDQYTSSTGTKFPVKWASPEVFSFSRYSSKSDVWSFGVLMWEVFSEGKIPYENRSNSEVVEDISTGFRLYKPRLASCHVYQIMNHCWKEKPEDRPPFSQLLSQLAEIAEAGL
Assay: Mouse PD assay for ITK degradation (Western blot, splenocytes after oral administration)
Format: in vivo
Details: for ITK degradation in vivo at 6 hours (FIG. 2): 90 mg/kg PO; for ITK (%) 90 mpk PO, 6 h: percent ITK remaining in mouse splenocytes relative to vehicle
Method in brief: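 Mice dosed orally, some compounds at 90 mg/kg; splenocytes harvested after 6 hours (some 24 hours). ITK measured by Western blot of equal-protein lysates, normalized to actin. Values are % ITK remaining relative to vehicle-control mean.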

[1] = mice, splenocytes, Western blot
[2] = mice, oral, splenocytes, Western blot

Compound	ITK (%) 90 mpk PO, 6 h [%]	ITK degradation in vivo at 6 hours (FIG. 3A, FIG. 4A) [2]	also measured
C[C@@H](C(=O)N(C)c1ccc2cc(-c3n[nH]c4c3CCC(C)(C)C4)[nH]c2c1)N1CCN(CC2CCN(c3ccc(C(=O)NC4CCC(=O)NC4=O)nc3)CC2)CC1 (stereo partly drawn) [Compound 7, 5-(4-((4-((S)-1-((2-(6,6-dimethyl-4,5,6,7-tetrahydro-1H-indazol-3-yl)-1H-indol-6-yl)(methyl)amino)-1-oxopropan-2-yl)piperazin-1-yl)methyl)piperidin-1-yl)-N-(2,6-dioxopiperidin-3-yl)picolinamide]	100	–	ITK degradation in vivo at 6 hours (FIG. 2) [1]: degraded ITK in vivo
CN(C(=O)CCC1CCN(c2ccc(C3CCC(=O)NC3=O)cn2)CC1)c1ccc2cc(-c3n[nH]c4c3C[C@@H]3C(F)(F)[C@]3(C)C4)[nH]c2c1 (stereo partly drawn) [Compound 21, N-(2-((4aS,5aR)-5,5-difluoro-5a-methyl-1,4,4a,5,5a,6-hexahydrocyclopropa[f]indazol-3-yl)-1H-indol-6-yl)-3-(1-(5-(2,6-dioxopiperidin-3-yl)pyridin-2-yl)piperidin-4-yl)-N-methylpropanamide]	76	–	–
C[C@@H](C(=O)N(C)c1ccc2cc(-c3n[nH]c4c3CCC(C)(C)C4)[nH]c2c1)N1CCN(C[C@H]2CCN(c3ccc4c(c3)CN(C3CCC(=O)NC3=O)C4=O)C2)CC1 (stereo partly drawn) [Compound 12, (2S)—N-(2-(6,6-dimethyl-4,5,6,7-tetrahydro-1H-indazol-3-yl)-1H-indol-6-yl)-2-(4-(((3R)-1-(2-(2,6-dioxopiperidin-3-yl)-1-oxoisoindolin-5-yl)pyrrolidin-3-yl)methyl)piperazin-1-yl)-N-methylpropanamide]	82	degraded ITK in vivo	–
C[C@@]12Cc3[nH]nc(-c4cc5ccc(N6CCC7(CCN(CC8CCN(c9ccc(C%10CCC(=O)NC%10=O)cn9)CC8)CC7)C6=O)cc5[nH]4)c3C[C@@H]1C2(F)F (stereo partly drawn) [Compound 19, 3-(6-(4-((2-(2-((4aS,5aR)-5,5-difluoro-5a-methyl-1,4,4a,5,5a,6-hexahydrocyclopropa[f]indazol-3-yl)-1H-indol-6-yl)-1-oxo-2,8-diazaspiro[4.5]decan-8-yl)methyl)piperidin-1-yl)pyridin-3-yl)piperidine-2,6-dione]	8	–	–
C[C@@H](C(=O)N(C)c1ccc2cc(-c3n[nH]c4c3CCC(C)(C)C4)[nH]c2c1)N1CCN(C(=O)C2CN(C3CCN(c4ccc5c(c4)C(=O)N(C4CCC(=O)NC4=O)C5=O)CC3)C2)CC1 (stereo partly drawn) [Compound 34, (2S)—N-(2-(6,6-dimethyl-4,5,6,7-tetrahydro-1H-indazol-3-yl)-1H-indol-6-yl)-2-(4-(1-(1-(2-(2,6-dioxopiperidin-3-yl)-1,3-dioxoisoindolin-5-yl)piperidin-4-yl)azetidine-3-carbonyl)piperazin-1-yl)-N-methylpropanamide]	108	–	–
CN(C(=O)CC[C@H]1CCN(c2ccc3c(c2)C(=O)N(C2CCC(=O)NC2=O)C3=O)C1)c1ccc2cc(-c3n[nH]c4c3C[C@@H]3C(F)(F)[C@]3(C)C4)[nH]c2c1 (stereo in doubt) [Compound 67, N-(2-((4aS,5aR)-5,5-difluoro-5a-methyl-1,4,4a,5,5a,6-hexahydrocyclopropafindazol-3-yl)-1H-indol-6-yl)-3-((3R)-1-(2-(2,6-dioxopiperidin-3-yl)-1,3-dioxoisoindolin-5-yl)pyrrolidin-3-yl)-N-methylpropanamide]	–	–	ITK (%) 90 mpk PO, 6 h (90 mg/kg): 190%
CN(C(=O)CC[C@H]1CCN(c2ccc3c(c2)C(=O)N(C2CCC(=O)NC2=O)C3=O)C1)c1ccc2cc(-c3n[nH]c4c3C[C@@H]3C(F)(F)[C@]3(C)C4)[nH]c2c1 (stereo in doubt) [Compound 68]	–	–	ITK (%) 90 mpk PO, 6 h (90 mg/kg): 240%
Cn1c(=O)n(C2CCC(=O)NC2=O)c2ccc(N3CCC(CN4CCC5(CC4)CCN(c4ccc6cc(-c7n[nH]c8c7CCC(C)(C)C8)[nH]c6c4)C5=O)CC3)cc21 (centres unmarked) [Compound 14, 3-(5-(4-((2-(2-(6,6-dimethyl-4,5,6,7-tetrahydro-1H-indazol-3-yl)-1H-indol-6-yl)-1-oxo-2,8-diazaspiro[4.5]decan-8-yl)methyl)piperidin-1-yl)-3-methyl-2-oxo-2,3-dihydro-1H-benzo[d]imidazol-1-yl)piperidine-2,6-dione]	47	degraded ITK in vivo	–
C[C@@H](C(=O)N(C)c1ccc2cc(-c3n[nH]c4c3C[C@@H]3C(F)(F)[C@]3(C)C4)[nH]c2c1)N1CCN(CC2CCN(c3ccc(C(=O)NC4CCC(=O)NC4=O)nc3)CC2)CC1 (stereo partly drawn) [Compound 66, 5-(4-((4-((S)-1-((2-((4aS,5aR)-5,5-difluoro-5a-methyl-1,4,4a,5,5a,6-hexahydrocyclopropa[f]indazol-3-yl)-1H-indol-6-yl)(methyl)amino)-1-oxopropan-2-yl)piperazin-1-yl)methyl)piperidin-1-yl)-N-(2,6-dioxopiperidin-3-yl)picolinamide]	42.7	–	–
C[C@@]12Cc3[nH]nc(C(=O)Nc4cnn(CC5CN(C[C@H]6CCN(c7ccc8c(c7)C(=O)N(C7CCC(=O)NC7=O)C8=O)C6)C5)c4)c3C[C@@H]1C2(F)F (stereo partly drawn) [Compound 44, (4aS,5aR)-N-(1-((1-(((3R)-1-(2-(2,6-dioxopiperidin-3-yl)-1,3-dioxoisoindolin-5-yl)pyrrolidin-3-yl)methyl)azetidin-3-yl)methyl)-1H-pyrazol-4-yl)-5,5-difluoro-5a-methyl-1,4,4a,5,5a,6-hexahydrocyclopropa[f]indazole-3-carboxamide]	75	degraded ITK in vivo	–
CN(C(=O)C1CN(C2CCN(c3ccc4c(c3)C(=O)N(C3CCC(=O)NC3=O)C4=O)CC2)C1)c1ccc2cc(-c3n[nH]c4c3CCC(C)(C)C4)[nH]c2c1 (centres unmarked) [Compound 35, N-(2-(6,6-dimethyl-4,5,6,7-tetrahydro-1H-indazol-3-yl)-1H-indol-6-yl)-1-(1-(2-(2,6-dioxopiperidin-3-yl)-1,3-dioxoisoindolin-5-yl)piperidin-4-yl)-N-methylazetidine-3-carboxamide]	108	–	–
C[C@@]12Cc3[nH]nc(C(=O)Nc4cnn(CC5CN(C(=O)C6CCN(c7ccc(C8CCC(=O)NC8=O)cn7)CC6)C5)c4)c3C[C@@H]1C2(F)F (stereo partly drawn) [Compound 50, (4aS,5aR)-N-(1-((1-(1-(5-(2,6-dioxopiperidin-3-yl)pyridin-2-yl)piperidine-4-carbonyl)azetidin-3-yl)methyl)-1H-pyrazol-4-yl)-5,5-difluoro-5a-methyl-1,4,4a,5,5a,6-hexahydrocyclopropa[f]indazole-3-carboxamide]	113	–	–
C[C@@H](C(=O)N(C)c1ccc2cc(-c3n[nH]c4c3CCC(C)(C)C4)[nH]c2c1)N1CCN(CC2CCN(c3cccc4c3n(C)c(=O)n4C3CCC(=O)NC3=O)CC2)CC1 (stereo partly drawn) [Compound 3, (2S)—N-(2-(6,6-dimethyl-4,5,6,7-tetrahydro-1H-indazol-3-yl)-1H-indol-6-yl)-2-(4-((1-(1-(2,6-dioxopiperidin-3-yl)-3-methyl-2-oxo-2,3-dihydro-1H-benzo[d]imidazol-4-yl)piperidin-4-yl)methyl)piperazin-1-yl)-N-methylpropanamide]	24	degraded ITK in vivo	ITK degradation in vivo at 6 hours (FIG. 2) [1]: degraded ITK in vivo; ITK degradation in vivo at 24 hours (FIG. 3A, FIG. 4A) (mice, oral, splenocytes, Western blot, 24 hours): degraded ITK in vivo
